Results taken from US11384115B2, “Nuclear sulfated oxysterol, potent regulator of lipid homeostasis, for therapy of hypercholesterolemia, hypertriglycerides, fatty liver diseases, and atherosclerosis” (Virginia Commonwealth University, priority 2004, dated 2022).

What was measured:
LXR = details: macrophages, cited from earlier work
SREBP-2 = assay: Western blot of SREBP-2 activation in HepG2 cells; assay type: cell-based, human
Description: Western blot analysis of SREBPs activation following 25HC3S or 25HC treatment in HepG2 cells. Total proteins were extracted from HepG2 cells treated with 25HC in ethanol (0.1%) (FIGS. 18A and 18C) or 25HC3S in DMSO (0.1%) (FIGS. 18B and 18D), cultured in the media in absence (FIGS. 18A and 18B) or presence (FIGS. 18C and 18D) of mevinolin (50 mM) and mevalonate (0.5 mM). SREBP-1 and SREBP-2 protein levels in the cells were determined by Western blot analysis. The extracted protein (100 μg) was loaded onto each lane for each condition as indicated. The data represent a typical result from one of three independent experiments.
Microsomal proteins (80 μg) were separated on a 7.5% SDS-polyacrylamide denaturing gel according to the method of Laemmli (14). Following SDS-PAGE (Hoefer Vertical Slab Gel Unit; Heofer, San Francisco, Calif.), proteins were electrophoretically transferred overnight (4° C.) to Immobilon-P membranes using a Hoefer Trans Blot Electrophoretic Transfer cell. The membranes were then blocked for 90 minutes (25° C.) in blocking buffer (PBS, pH 7.4, 0.1% Tween, 5% non-fat dry milk). Proteins were then incubated for 90 minutes (25° C.) or overnight (4° C.) with a rabbit polyclonal IgG (1:2500-1:20,000) against human SREBP-1, SREBP-2, or HMG CoA reductase. […] Protein bands were detected using the Amersham ECL plus Kit.

HepG2 cells = assay: Cholesterol levels in microsomal fractions by HPLC after cholesterol oxidase; assay type: cell-based, human; details: 0-25 μM
HMG CoA reductase mRNA [1] = assay: HMG CoA reductase mRNA by real-time RT-PCR in HepG2 cells; assay type: cell-based, human; details: for inhibition of HMG CoA reductase mRNA: HepG2, lipid-depleted serum media
Description: HepG2 cells were grown in MEM containing non-essential amino acids, 0.03M NaHCO3, 10% FBS, 1 mM L-glutamine, 1 mM sodium pyruvate and 1% Pen/Strep and incubated at 37° C. in 5% CO2. When cells reached at ˜90% confluency, the oxysterols in DMSO or in ethanol (final concentration, 0.1%) and/or [1-^14C]acetate for cholesterol synthesis was added or otherwise as indicated. Microsomal and cytosol fractions were isolated from broken cells as described previously (10).
(§1) Total RNA was isolated from HepG2 cells using SV Total RNA Isolation Kit (Promega). Two μg of total RNA was used for first-strand cDNA synthesis as recommended by manufacture (Invitrogen). Real-time PCR was performed using SYBR Green on ABI 7500 Fast Real-Time PCR System (Applied Biosystems). The final reaction mixture contained 5 ng of cDNA, 100 nM of each primer, 10 μl of 2×SYBR® Green PCR Master Mix (Applied Biosystems), and RNase-free water to complete the reaction mixture volume to 20 μl. All reactions were performed in triplicate. The PCR was carried out for 40 cycles at 95° C. for 15 s and 60° C. for 1 min. The fluorescence was read during the reaction, allowing a continuous monitoring of the amount of PCR product. The data was normalized to internal control-β-actin or GAPDH mRNA. The sequences of primers for HMG CoA reductase used in real-time PCR are […] (SEQ ID NO: 1) (Forward) and […] (SEQ ID NO: 2) (Reverse).

HMG CoA reductase mRNA [2] = assay: HMG CoA reductase mRNA by real-time RT-PCR in primary human hepatocytes; assay type: cell-based; design: effect on levels of HMG CoA reductase mRNA: dose or concentration left out as unconfirmed; details: for inhibition of HMG CoA reductase mRNA: PHH cultured in serum-free media
Description: Primary human hepatocytes were purchased from an NIH-approved facility (Liver Tissue Procurement Distribution System, Univ. of Minnesota). Cells were obtained from a random sampling of males and females 18-69 yr of age. Experiments were performed as cells became available to corroborate findings in experiments conducted in HepG2 cells as previous described (13).
as §1

IL-1β and TNFα release = assay: ELISA analysis of LPS-induced cytokine releases from macrophages; assay type: cell-based, human; details: LPS 1 μg/ml, 24 hrs; for LPS-induced IL-1β release: concentration-dependent
Description: A total of 1×10^6 macrophages were treated with LPS (1 μg/ml) and/or different concentrations of 25HC or 25HC3S for 24 hrs. Supernatants were harvested and cytokines IL-1ß and TNF-α concentration were measured by enzyme-linked immunosorbent assay (ELISA) according to manufacturer's instruction (SuperArray Bioscience, Frederick Md.). SiRNA-mediated macrophage RNA interference

NFκB = assay: Western blot of nuclear NFκB levels in THP-1 macrophages; assay type: cell-based, human
Description: A, THP-1 macrophages were treated with 25HC3S or 25HC for 24 hrs followed by addition or no addition of TNFα for another 3 hrs. The nuclear NFκB levels were analyzed by Western blot. The data represent one typical result out of three experiments.
Fifty μg of total cell lysates or nuclear protein extracts, otherwise as indicated, were separated on 10% SDS-PAGE gels and transferred onto a polyvinylidene difluoride membrane as described previously [31]. Membranes were blocked in TBS containing 5% of nonfat dried milk for 1 hr. The specific proteins were determined by incubation with specific antibodies against human PPAR or IκB overnight at 4° C. with shaking. After washing, the membrane was incubated in a 1:3,000 dilution of a secondary antibody (goat anti-rabbit or anti-mouse IgG-HP conjugate; Bio-Rad, Hercules, Calif.) at room temperature for 1 hr in the washing buffer (Tris buffered solution containing 0.5% Tween 20). The protein bands were visualized using Western Lightening Chemiluminescence Reagent (Perkin-Elmer, Waltham, Mass.). The expression levels were normalized to Lamin.

PPARγ mRNA = PPARγ mRNA by real time RT-PCR in macrophages; assay type: cell-based, human
Description: Total RNA was isolated from THP-1 derived macrophages following treatments for 6 hrs otherwise as indicated using SV Total RNA Isolation Kit (Promega, Wisconsin, Wis.), which includes DNase treatment. Two microgram of total RNA was used for first-strand cDNA synthesis as recommended by manufacturer (Invitrogen, Carlsbad, Calif.). Real-time RT-PCR was performed using SYBR Green as indicator on ABI 7500 Fast Real-Time PCR System (Applied Biosystems, Foster City, Calif.). The final reaction mixture contained 10 ng of cDNA, 100 nM of each primer, 10 μl of 2×SYBR® Green PCR Master Mix (Applied Biosystems, Foster City, Calif.), and RNase-free water to complete the reaction mixture volume to 20 μl. All reactions were performed in triplicate. PCR was carried out for 40 cycles of 95° C. for 15 s and 60° C. for 1 min. The fluorescence was read during the reaction, allowing a continuous monitoring of the amount of PCR product. The data was normalized to internal control GAPDH.

[3] = HepG2, in the presence of serum

| Structure (SMILES) | LXR activities and its targeting gene expressions (LXR) | mature form of SREBP-2 (SREBP-2) | cholesterol levels in the microsomal fraction (HepG2 cells) | cholesterol levels in the microsomal fraction (HepG2 cells; listed as nuclear oxysterol) | HMG CoA reductase mRNA (HMG CoA reductase mRNA [1]; HepG2, 10% FBS media) | inhibition of the mRNA of HMG CoA reductase and SREBP1 (HMG CoA reductase mRNA [1]; HepG2, at 12 μM) | inhibition of HMG CoA reductase (HMG CoA reductase mRNA [1]; [3]) | inhibition of HMG CoA reductase mRNA (HMG CoA reductase mRNA [1]) | inhibition of HMG CoA reductase mRNA (HMG CoA reductase mRNA [2]) | LPS-induced release of TNFα (IL-1β and TNFα release) | LPS-induced IL-1β release (IL-1β and TNFα release) | nuclear NFκB levels (NFκB; in the absence of TNFα, 24 hrs) | nuclear NFκB levels (NFκB; in the presence of TNFα) | PPARγ mRNA levels (PPARγ mRNA) | increase of LXR targeting gene expressions, ABCA1/G1 and SREBP-1 mRNAs (LXR; in 6 hrs) | inhibition of the mRNA of HMG CoA reductase and SREBP1 (HMG CoA reductase mRNA [1]; HepG2, at 3 μM) | inhibition of HMG CoA reductase (HMG CoA reductase mRNA [1]; HepG2, lipids depleted serum) | effect on levels of HMG CoA reductase mRNA (HMG CoA reductase mRNA [2]; PHH, serum-free media) |
| --- | --- | --- | --- | --- | --- | --- | --- | --- | --- | --- | --- | --- | --- | --- | --- | --- | --- | --- |
| C[C@H](CCCC(C)(C)O)[C@H]1CC[C@H]2[C@@H]3CC=C4C[C@@H](OS(=O)(=O)O)CC[C@]4(C)[C@H]3CC[C@]12C [25HC3S, 5-cholesten-3β, 25-diol 3-sulphate] | decreases | only slightly decreased | significantly decreased | significant decrease | concentration dependent decreases | 85% | 70% | still strongly inhibits | 75% | represses | significantly decreased | decreased | failed to decrease | neither 25HC nor 25HC3S was able to change |  |  |  |  |
| C[C@H](CCCC(C)(C)O)[C@H]1CC[C@H]2[C@@H]3CC=C4C[C@@H](O)CC[C@]4(C)[C@H]3CC[C@]12C [25HC, 25-hydroxycholesterol, reference compound] |  | only slightly decreased | significantly decreased |  |  |  | 70% | more potent inhibition than 25HC3S | 15% |  | increased | increased | significantly increased | neither 25HC nor 25HC3S was able to change | 5-50 fold | 85% | 90% | ~15% |
